The values that follow come from US8519096B2, “Citrullinated peptides for diagnosing and prognosing rheumatoid arthritis” (Nestec S.A., priority 2009, dated 2013).

For assay [1], the system named is anti-citrullinated protein antibodies (ACPAs). As to conditions: FIG. 3 and FIG. 7; compared with the other peptides tested. On the procedure: (§1) This example describes an enzyme-linked immunosorbent assay (ELISA) for detecting (e.g., measuring) the presence (or absence) or level of anti-citrullinated protein antibodies (ACPAs) in an individual's sample. As a non-limiting example, a 96-well immunoassay plate was coated with avidin (e.g., neutravidin) and the plate was blocked with 5% bovine serum albumin in phosphate buffered saline. Biotinylated synthetic citrullinated peptides of the present invention were incubated with the avidin-coated plate. […] Unbound samples were washed out and RA-associated autoantibodies directed against the immobilized citrullinated peptide were detected with an enzyme-labeled (e.g., HRP-labeled) anti-human IgA, IgG, IgM, or IgA/G/M secondary antibody.

The next assay deals with IgG ACPAs. The assay is described as follows: ACPA ELISA with anti-human IgG secondary antibody. As to conditions: for IgG ACPA positive response (strong/moderate): Example 7, FIGS. 20-27. It counts as binding. The method, then:
The synthetic citrullnated peptides set forth in Example 6, which were designed from synovial proteins, were synthesized and evaluated for their ability to diagnose and/or prognose RA. […] The peptides were then tested for IgG ACPA dose-response in samples of synovial fluid taken from both healthy patients and patients with RA.

The test system of the next assay is IgA ACPAs. On the procedure:
as §1

The next assay deals with IgM ACPAs. On the procedure:
as §1

In a further assay the test system is IgA/G/M ACPAs. The method, then: as §1

Non-standard residues stand in square brackets, D forms with d. *: point of attachment. Biotin = O=C1N[C@H]2[C@H](CS[C@H]2CCCCC(=O)*)N1; Cit = NC(=O)NCCC[C@H](N)C(=O)O

On to “Biotin-[Cit]PAPPPISGGGY[Cit]A[Cit]-NH2 [FB3]”, for which the “dose-response curve in ACPA ELISA (in words)” value (from here on “dose-response curve”) in assay [1] was “stronger dose-response curve”.

As to “Biotin-GGGAT[Cit]SSAV[Cit]L[Cit]SSVPGV[Cit]LLQDS-NH2 [VMT5]”, the “dose-response curve” value in assay [1] is given as “weak dose-response curve”.

For “Biotin-GGGATRSSAV[Cit]LRSSVPGVRLLQDS-NH2 [VMT2]”, in the assay on IgG ACPAs, the “IgG ACPA positive response (strong/moderate)” value was “moderate”. For the same substance, in assay [1], the “dose-response curve” value was “strong dose-response curves”. In the assay on IgA ACPAs, the “sensitivity for autoantibodies of the IgA class (in words)” value is recorded as “particularly high sensitivity”. Further, the “sensitivity for autoantibodies of the IgM class (in words)” value with IgM ACPAs is “particularly high sensitivity”.

Turning to “Biotin-GGGATRSSAVRL[Cit]SSVPGVRLLQDS-NH2 [VMT3]”, the “sensitivity for autoantibodies of the IgG class (in words)” value in the assay with IgG ACPAs is reported as “particularly high sensitivity”. For the same substance, in assay [1], the “dose-response curve” value is listed as “strong dose-response curves”. In addition, the “sensitivity for autoantibodies of the IgA/G/M classes (in words)” value in the assay with IgA/G/M ACPAs was “particularly high sensitivity”.

Turning to “T9α1-1: synthetic citrullinated peptide derived from collagen (Coll.T9α1), Table 8 (Biotin-KRRP[Cit]FPVNSFQVDKAAS[Cit]AIQRVVGSRAIQ[Cit]VVGSA-NH2; SMILES CC[C@H](C)[C@H](NC(=O)[C@H](C)NC(=O)[C@H](CCCNC(=N)N)NC(=O)[C@H](CO)NC(=O)CNC(=O)[C@@H](NC(=O)[C@@H](NC(=O)[C@H](CCCNC(=N)N)NC(=O)[C@H](CCC(N)=O)NC(=O)[C@@H](NC(=O)[C@H](C)NC(=O)[C@H](CCCNC(N)=O)NC(=O)[C@H](CO)NC(=O)[C@H](C)NC(=O)[C@H](C)NC(=O)[C@H](CCCCN)NC(=O)[C@H](CC(=O)O)NC(=O)[C@@H](NC(=O)[C@H](CCC(N)=O)NC(=O)[C@H](Cc1ccccc1)NC(=O)[C@H](CO)NC(=O)[C@H](CC(N)=O)NC(=O)[C@@H](NC(=O)[C@@H]1CCCN1C(=O)[C@H](Cc1ccccc1)NC(=O)[C@H](CCCNC(N)=O)NC(=O)[C@@H]1CCCN1C(=O)[C@H](CCCNC(=N)N)NC(=O)[C@H](CCCNC(=N)N)NC(=O)[C@H](CCCCN)NC(=O)CCCC[C@@H]1SC[C@@H]2NC(=O)N[C@@H]21)C(C)C)C(C)C)[C@@H](C)CC)C(C)C)C(C)C)C(=O)N[C@@H](CCC(N)=O)C(=O)N[C@@H](CCCNC(N)=O)C(=O)N[C@H](C(=O)N[C@H](C(=O)NCC(=O)N[C@@H](CO)C(=O)N[C@@H](C)C(N)=O)C(C)C)C(C)C)”, in the assay on IgG ACPAs, the “IgG ACPA positive response (strong/moderate)” value is reported as “moderate”.

As for “H2A-1: synthetic citrullinated peptide derived from histone (H2A), Table 8 (Biotin-GLELAGNAA[Cit]DNKKTRIIP[Cit]HLQG-NH2; SMILES CC[C@H](C)[C@H](NC(=O)[C@H](CCCNC(=N)N)NC(=O)[C@@H](NC(=O)[C@H](CCCCN)NC(=O)[C@H](CCCCN)NC(=O)[C@H](CC(N)=O)NC(=O)[C@H](CC(=O)O)NC(=O)[C@H](CCCNC(N)=O)NC(=O)[C@H](C)NC(=O)[C@H](C)NC(=O)[C@H](CC(N)=O)NC(=O)CNC(=O)[C@H](C)NC(=O)[C@H](CC(C)C)NC(=O)[C@H](CCC(=O)O)NC(=O)[C@H](CC(C)C)NC(=O)CNC(=O)CCCC[C@@H]1SC[C@@H]2NC(=O)N[C@@H]21)[C@@H](C)O)C(=O)N[C@H](C(=O)N1CCC[C@H]1C(=O)N[C@@H](CCCNC(N)=O)C(=O)N[C@@H](Cc1c[nH]cn1)C(=O)N[C@@H](CC(C)C)C(=O)N[C@@H](CCC(N)=O)C(=O)NCC(N)=O)[C@@H](C)CC)”, in the assay on IgG ACPAs, the “IgG ACPA positive response (strong/moderate)” value is recorded as “moderate”.

On to “FBNT-3: synthetic citrullinated peptide derived from fibronectin, Table 8 (Biotin-GVLV[Cit]WTPPRLVRWTPP[Cit]AQG-NH2; SMILES CC(C)C[C@H](NC(=O)[C@H](CCCNC(=N)N)NC(=O)[C@@H]1CCCN1C(=O)[C@@H]1CCCN1C(=O)[C@@H](NC(=O)[C@H](Cc1c[nH]c2ccccc12)NC(=O)[C@H](CCCNC(N)=O)NC(=O)[C@@H](NC(=O)[C@H](CC(C)C)NC(=O)[C@@H](NC(=O)CNC(=O)CCCC[C@@H]1SC[C@@H]2NC(=O)N[C@@H]21)C(C)C)C(C)C)[C@@H](C)O)C(=O)N[C@H](C(=O)N[C@@H](CCCNC(=N)N)C(=O)N[C@@H](Cc1c[nH]c2ccccc12)C(=O)N[C@H](C(=O)N1CCC[C@H]1C(=O)N1CCC[C@H]1C(=O)N[C@@H](CCCNC(N)=O)C(=O)N[C@@H](C)C(=O)N[C@@H](CCC(N)=O)C(=O)NCC(N)=O)[C@@H](C)O)C(C)C)”, for which the “IgG ACPA positive response (strong/moderate)” value in the assay with IgG ACPAs was “moderate”.

For the substance “Biotin-HSTK[Cit]GHAKSRPV[Cit]G-NH2 [FB4]”, the “dose-response curve” value in assay [1] was “stronger dose-response curve”.
